Test results: patent US7825127B2, “Method for treating cancer” (Takeda Pharmaceutical Company, Limited, priority 2006, dated 2010)

Assays:
Experiment in all cases: Sulforhodamine B cell growth inhibitory assay
Type in all cases: cell-based
BT-474 = BT-474 (FIG. 2A), 5 days
Description: (§1) Sulforhodamine B staining method was used for cell growth inhibitory assay. Each cell was plated on a 96 well plate (Nunc). The next day, compound X was serially diluted and added thereto. The cell lines used and the terms of incubation of the compound are indicated separately. To immobilize the cells, 25% glutaraldehyde solution (Wako, 50 μL) was added to the culture medium (200 μL) and the mixture was left standing at room temperature for 15 min.
(§2) The plate was then washed once with PBS (Invitrogen), 200 μL of PBS was added, 25 μL of 50% trichloroacetic acid (Wako) was added, and the mixture was left standing at 4° C. for 1 hr or longer. The plate was washed 5 times with tap water, redundant water was removed by slamming the plate against paper towels. A 1% (W/W) acetic acid solution (50 μL) containing 0.4% (w/v) Sulforhodamine B (SRB, Sigma) was added to each well and, 15 min later, the plate was washed 3 times with 1% acetic acid solution. The plate was thoroughly dried, 10 mM Tris solution was added, and the mixture was stirred well in a plate shaker, and the absorbance at 550 nm was measured (Bio-Rad, Benchmark Plus).

MCF-7 = MCF-7 (FIG. 2C), 3 days
Description: as §1, §2

SK-BR-3 = SK-BR-3 (FIG. 2B), 5 days
Description: as §1, §2

Question: For `CC(C)(O)CC(=O)NCCn1ccc2ncnc(Nc3ccc(Oc4cccc(C(F)(F)F)c4)c(Cl)c3)c21` [compound X, N-{2-[4-({3-chloro-4-[3-(trifluoromethyl)phenoxy]phenyl}amino)-5H-pyrrolo[3,2-d]pyrimidin-5-yl]ethyl}-3-hydroxy-3-methylbutanamide], which “sensitivity of cells to growth inhibition” value (BT-474) is on record?
Answer: high-sensitive

Question: And the “sensitivity of cells to growth inhibition” value (MCF-7)?
Answer: low-sensitive

Question: What about the “sensitivity of cells to growth inhibition” value (SK-BR-3) of the same molecule?
Answer: high-sensitive
